# Experimental data: publication PMC2790855, “BU-32: a novel proteasome inhibitor for breast cancer” (2009)
# Target: T1, 20S proteasome caspase-like activity (β1-subunit) (Homo sapiens, UniProt P28072)
# T1 construct: gene PSMB6; with 20S proteasome
# T1 sequence (P28072 35-239): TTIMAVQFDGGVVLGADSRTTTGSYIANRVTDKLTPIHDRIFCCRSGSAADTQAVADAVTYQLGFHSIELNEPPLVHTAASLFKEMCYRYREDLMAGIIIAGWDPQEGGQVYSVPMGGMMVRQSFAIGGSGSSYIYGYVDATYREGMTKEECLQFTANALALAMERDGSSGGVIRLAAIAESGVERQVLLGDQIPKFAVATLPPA
# Assay: Proteasome-Glo caspase-like assay in MDA-MB-231, MCF7 and SKBR3 cells treated […] h with […]; reference inhibitor
# Assay type: cell-based
smiles,measurement,value
CC(C)C[C@H](NC(=O)[C@H](Cc1ccccc1)NC(=O)c1cnccn1)B(O)O [Bortezomib],"Proteasome-Glo caspase-like assay in MDA-MB-231, MCF7 and SKBR3 cells treated 24","analyzed for the inhibition of chymotryptic-like, caspase-like, and tryptic-like intracellular proteasome activities"
